Assays:
[1] = tested on: Aortic smooth muscle (HASMC); assay: Induction of early apoptosis (Bcl-2, annexin V, or caspase activation); type: cell-based; settings: Heart: Aortic smooth muscle (HASMC)
Description: (§1) The effects of Coenzyme Q10 treatment on a variety of oncogenic and normal cell lines were examined and compared. The sensitivity of cells to Coenzyme Q10 was assessed by monitoring induction of apoptosis. CoQ10 treatment of cells was carried out as described in detail below in the Materials and Methods. Induction of apoptosis was assessed in the treated cells by monitoring indicators of early apoptosis (e.g., Bcl-2 expression, caspase activation and by using annexin V assays) as described below. From these studies, the minimal CoQ10 dosage, e.g., concentration of CoQ10 and time of treatment, required to induce apoptosis in the panel of cell lines was determined.
(§2) Cells were cultured in T-75 flasks with relevant medium supplemented with 10% Fetal Bovine Serum (FBS), 1% PSA (penicillin, streptomycin, amphotericin B) (Invitrogen and Cellgro) in a 37° C. incubator with 5% CO2 levels until 70-80% confluence was reached. To harvest cells for treatment, flasks were primed with 1 mL Trypsin, aspirated, trypsinized with an additional 3 mL, and incubated at 37° C. for 3-5 minutes. Cells were then neutralized with an equal volume of media and the subsequent solution was centrifuged at […] for 8 minutes. The supernatant was aspirated and the cells were resuspended with 8.5 ml of media. A mixture of 500 ul of the resuspension and 9.5 ml of […] was read twice by a coulter counter and the appropriate number of cells to be seeded into each dish was determined. Control and concentration ranging from 0-200 μM groups were examined in triplicate. From a 500 μM CoQ-10 stock solution, serial dilutions were performed to achieve desired experimental concentration in appropriate dishes. Dishes were incubated in a 37° C. incubator with 5% CO2 levels for 0-72 hours depending on cell type and experimental protocol.
(§3) Following cell treatment incubation period was complete, protein isolation was performed. Dishes of all treatment groups were washed twice with 2 ml, and once with 1 ml of ice cold 1× Phosphate Buffered Saline (PBS). The PBS was aspirated from the dishes after the initial 2 washes only. Cells were gently scraped and collected into microcentrifuge tubes using the final volume from the third wash and centrifuged at 10,000 rpm for 10 minutes. After centrifugation, the supernatant was aspirated and the pellet was lysed with 50 uL of lysis buffer (1 uL of protease and phosphotase inhibitor for every 100 uL of lysis buffer). Samples were then frozen overnight at −20° C.
(§4) After the cell treatment incubation period was complete, protein isolation was performed. Flasks of all treatment groups were washed twice with 5 mL, and once with 3 mL of ice cold 1×PBS. The PBS was aspirated from the flasks after the first 2 washes only. Cells were gently scraped and collected into 15 mL centrifuge tubes using the final volume from the third wash and centrifuged for at 10,000 rpm for 10 minutes. After centrifugation, the supernatant was aspirated and the pellet was lysed with an appropriate amount of lysis buffer (1 uL of protease and phosphotase inhibitor for every 100 uL of lysis buffer). Lysis buffer volume was dependent on pellet size. Samples were transferred in microcentrifuge tubes and frozen overnight at −20° C.
(§5) Samples were thawed at […] and sonicated to ensure homogenization the day following protein isolation. Protein quantification was performed using the micro BCA protein assay kit (Pierce). To prepare samples for Immuno-blotting, a 1:19 solution of betamercaptoethanol (Sigma) to sample buffer (Bio-Rad) was prepared. Samples were diluted 1:1 with the betamercaptoethanol-sample buffer solution, boiled at 95° C. for 5 minutes, and frozen overnight at −20° C.
(§6) The volume of sample to load per well was determined using the raw mean concentration of protein obtained from the BCA protein assay. Approximately 30-60 μg of protein were loaded for each treatment time point. […]

BT-20 = assay: as above; type: cell-based; settings: BREAST: BT-20
Description: as §1, §2, §3, §4, §5, §6

Ewing's sarcoma (NCI) = assay: as above; type: cell-based; settings: BONE: Ewing's sarcoma (NCI)
Description: as §1, §2, §3, §4, §5, §6

Fibroblasts (nFib) = assay: as above; type: cell-based; settings: SKIN: Fibroblasts (nFib)
Description: as §1, §2, §3, §4, §5, §6

Hep3B = assay: as above; type: cell-based; settings: LIVER: Hep3B
Description: as §1, §2, §3, §4, §5, §6

HepG2 = assay: as above; type: cell-based; settings: LIVER: HepG2
Description: as §1, §2, §3, §4, §5, §6

[2] = tested on: Keratinocytes (Heka, Hekn); assay: as above; type: cell-based; settings: SKIN: Keratinocytes (Heka, Hekn)
Description: as §1, §2, §3, §4, §5, §6

MCF-7 = assay: as above; type: cell-based; settings: BREAST: MCF-7
Description: as §1, §2, §3, §4, §5, §6

[3] = tested on: Mammary fiboblasts: 184A1 and 184B5) (Lawrence Berkeley); assay: as above; type: cell-based; settings: BREAST: Mammary fiboblasts: 184A1 and 184B5
Description: as §1, §2, §3, §4, §5, §6

Melanocytes (Hema, LP) = assay: as above; type: cell-based; settings: SKIN: Melanocytes (Hema, LP)
Description: as §1, §2, §3, §4, §5, §6

Melanoma (Skmel 2) = assay: as above; type: cell-based; settings: SKIN: Melanoma (Skmel 2)
Description: as §1, §2, §3, §4, §5, §6

Melanoma (Skmel 28) = assay: as above; type: cell-based; settings: SKIN: Melanoma (Skmel 28)
Description: as §1, §2, §3, §4, §5, §6

PC3 = assay: as above; type: cell-based; settings: PROSTATE: PC3
Description: as §1, §2, §3, §4, §5, §6

SkBr-3 = assay: as above; type: cell-based; settings: BREAST: SkBr-3
Description: as §1, §2, §3, §4, §5, §6

ZR-75 = assay: as above; type: cell-based; settings: BREAST: ZR-75
Description: as §1, §2, §3, §4, §5, §6

[4] = tested on: MDA-MB213 breast cancer cells; assay: Reactive oxygen species (ROS) production; type: cell-based; settings: 100 μM CoQ10 for 24 hours, FIG. 17
Description: (§7) Cells were treated with 100 μM CoQ10 for 24 hours.
(§8) Mitochondria represent a significant source of ROS which are known to participate in activation of cell death pathways.

[5] = tested on: non-tumorigenic control cells (MCF12A); assay: Reactive oxygen species (ROS) production; type: cell-based; settings: 100 μM CoQ10 for 24 hours, FIG. 17
Description: as §7, §8

[6] = background statement; cited from earlier work

## COC1=C(OC)C(=O)C(C/C=C(\C)CC/C=C(\C)CC/C=C(\C)CC/C=C(\C)CC/C=C(\C)CC/C=C(\C)CC/C=C(\C)CC/C=C(\C)CC/C=C(\C)CCC=C(C)C)=C(C)C1=O [CoQ10, Coenzyme Q10]
[1]
  Indication of Early apoptosis (Bcl-2, annexin V, or caspase activation): None
BT-20
  Indication of Early apoptosis (Bcl-2, annexin V, or caspase activation): Strong
  Minimal CoQ10 concentration required for induction of early apoptosis, Concentration: 100 µM
  Minimal treatment time required for induction of early apoptosis, Time: 48 h
Ewing's sarcoma (NCI)
  Minimal CoQ10 concentration required for induction of early apoptosis, Concentration: 5 µM
  Minimal treatment time required for induction of early apoptosis, Time: 1 h
Ewing's sarcoma (NCI); cell wraps: Extremely / strong
  Indication of Early apoptosis (Bcl-2, annexin V, or caspase activation): Extremely
Fibroblasts (nFib)
  Indication of Early apoptosis (Bcl-2, annexin V, or caspase activation): None
Hep3B
  Indication of Early apoptosis (Bcl-2, annexin V, or caspase activation): Very Strong
  Minimal CoQ10 concentration required for induction of early apoptosis, Concentration: 50 µM
  Minimal treatment time required for induction of early apoptosis, Time: 24 h
HepG2
  Indication of Early apoptosis (Bcl-2, annexin V, or caspase activation): Very Strong
  Minimal CoQ10 concentration required for induction of early apoptosis, Concentration: 50 µM
  Minimal treatment time required for induction of early apoptosis, Time: 24 h
[2]
  Indication of Early apoptosis (Bcl-2, annexin V, or caspase activation): None
MCF-7
  Indication of Early apoptosis (Bcl-2, annexin V, or caspase activation): Strong
  Minimal CoQ10 concentration required for induction of early apoptosis, Concentration: 50 µM
  Minimal treatment time required for induction of early apoptosis, Time: 48 h
[3]
  Indication of Early apoptosis (Bcl-2, annexin V, or caspase activation): None
Melanocytes (Hema, LP)
  Indication of Early apoptosis (Bcl-2, annexin V, or caspase activation): None
Melanoma (Skmel 2)
  Indication of Early apoptosis (Bcl-2, annexin V, or caspase activation): Very Strong
  Minimal CoQ10 concentration required for induction of early apoptosis, Concentration: 25 µM
  Minimal treatment time required for induction of early apoptosis, Time: 24 h
Melanoma (Skmel 28)
  Indication of Early apoptosis (Bcl-2, annexin V, or caspase activation): Strong
  Minimal CoQ10 concentration required for induction of early apoptosis, Concentration: 20 µM
  Minimal treatment time required for induction of early apoptosis, Time: 24 h
PC3
  Indication of Early apoptosis (Bcl-2, annexin V, or caspase activation): Very Strong
  Minimal CoQ10 concentration required for induction of early apoptosis, Concentration: 25 µM
  Minimal treatment time required for induction of early apoptosis, Time: 24 h
SkBr-3
  Indication of Early apoptosis (Bcl-2, annexin V, or caspase activation): Very Strong
  Minimal CoQ10 concentration required for induction of early apoptosis, Concentration: 50 µM
  Minimal treatment time required for induction of early apoptosis, Time: 24 h
ZR-75
  Indication of Early apoptosis (Bcl-2, annexin V, or caspase activation): Slight
  Minimal CoQ10 concentration required for induction of early apoptosis, Concentration: 200 µM
  Minimal treatment time required for induction of early apoptosis, Time: 72 h
[4]
  ROS production: increased ROS production
[5]
  ROS production: increased ROS production
[6]
  Lipophilicity: very lipophilic
  Solubility in water: insoluble in water
